The values that follow come from ChEMBL document CHEMBL1155928, “Synthesis and structure-activity relationships of berberine analogues as a novel class of low-density-lipoprotein receptor up-regulators” (2008).

Each structure is given as a SMILES string.

The test relates to HepG2. The test can be described thus: Upregulation of LDLR mRNA expression in human HepG2 cells after 8 hrs by RT-PCR relative to control. The test is classed as functional.
In turn, `CCCOc1ccc2cc3[n+](cc2c1OC)CCc1cc2c(cc1-3)OCO2.[Cl-]` came in with an Activity of 2.3.

The molecule `COc1cc2cc3[n+](cc2cc1OC)CCc1cc2c(cc1-3)OCO2.[Cl-]` [PSEUDOBERBERINE] yielded an Activity of 8.5.

The molecule `[Cl-].c1ccc2c[n+]3c(cc2c1)-c1cc2c(cc1CC3)OCO2` gave an Activity of 2.95.

`CCCOc1ccc2cc3[n+](cc2c1)CCc1cc2c(cc1-3)OCO2.[Cl-]` gave an Activity of 2.13.

Molecule `COc1cc2c[n+]3c(cc2c(OC)c1OC)-c1cc2c(cc1CC3)OCO2.[Cl-]` had an Activity of 3.01.

Molecule `CCOc1cc2cc3[n+](cc2cc1OC)CCc1cc2c(cc1-3)OCO2.[Cl-]` came in with an Activity of 2.1.

In the case of `CCOc1ccc2cc3[n+](cc2c1OC)CCc1cc2c(cc1-3)OCO2.[Cl-]`, the Activity is 2.35.

Molecule `CCOc1cc2c[n+]3c(cc2cc1OC)-c1cc2c(cc1CC3)OCO2.[Cl-]` gave an Activity of 2.17.

`CCOc1cc2c[n+]3c(cc2cc1O)-c1cc2c(cc1CC3)OCO2.[Cl-]`: the Activity is 1.8.

With `CCOc1ccc2cc3[n+](cc2c1)CCc1cc2c(cc1-3)OCO2.[Cl-]`, the Activity came to 2.9.

On to `CCCOc1ccc2cc3[n+](cc2c1OCCC)CCc1cc2c(cc1-3)OCO2.[Cl-]`, for which the Activity is listed as 2.21.

Turning to `COc1ccc2cc3[n+](cc2c1)CCc1cc2c(cc1-3)OCO2.[Cl-]`, the Activity amounted to 2.

Regarding `COc1cc2cc3[n+](cc2c(OC)c1OC)CCc1cc2c(cc1-3)OCO2.[Cl-]`, the Activity came to 3.16.

As to `CCCOc1cc2c[n+]3c(cc2cc1OC)-c1cc2c(cc1CC3)OCO2.[Cl-]`, the Activity is reported as 1.94.

In turn, `Oc1ccc2cc3[n+](cc2c1)CCc1cc2c(cc1-3)OCO2.[Cl-]` yielded an Activity of 5.16.

As to `CCOc1ccc2cc3[n+](cc2c1OCC)CCc1cc2c(cc1-3)OCO2.[Cl-]`, the Activity came to 2.13.

`COc1cc2c[n+]3c(cc2cc1O)-c1cc2c(cc1CC3)OCO2.[Cl-]` yielded an Activity of 2.2.

The molecule `COc1cc2cc3[n+](cc2cc1O)CCc1cc2c(cc1-3)OCO2.[Cl-]` yielded an Activity of 1.6.

As to `CCCOc1cc2cc3[n+](cc2cc1OC)CCc1cc2c(cc1-3)OCO2.[Cl-]`, the Activity was determined as 2.35.

In turn, `COc1ccc2cc3[n+](cc2c1OC)CCc1cc2c(cc1-3)OCO2.[Cl-]` [BERBERINE CHLORIDE] displayed an Activity of 5.3.
